Values of other authors as cited in patent US20040170683A1, “Tablets comprising modafinil” (priority 2003, published 2004).

How the values were obtained:
[1] = capsules containing the finer particles versus capsules containing the coarser particles
[2] = oral, human trials; median particle size between 30 and 50 microns versus between 80 and 150 microns

NC(=O)C[S+]([O-])C(c1ccccc1)c1ccccc1 (centres unmarked) [modafinil, Modafinil]
dissolution of capsules [1]: substantially faster | extent of absorption [2]: greater extent of absorption
